From ChEMBL document CHEMBL5137059, “An Intelligent Strategy with All-Atom Molecular Dynamics Simulations for the Design of Lipopeptides against Multidrug-Resistant Pseudomonas aeruginosa” (2022) come the findings set out here.

In brackets after ≈: the same amount, converted by molar mass. Positions of bridges follow the written chain, without caps; N, C: chain ends. Non-standard residues stand in square brackets, D forms with d. Residues, ends and D or L forms follow the SMILES beside them. *: point of attachment. Benzoyl(4-Ph) = O=C(c1ccc(-c2ccccc2)cc1)*; Bip = N[C@@H](Cc1ccc(-c2ccccc2)cc1)C(=O)O; dBip = N[C@H](Cc1ccc(-c2ccccc2)cc1)C(=O)O; dGly(nOct) = CCCCCCCC[C@@H](N)C(=O)O; Gly(octyl) = CCCCCCCC[C@H](N)C(=O)O; Octanoyl = CCCCCCCC(=O)*; Dab = NCC[C@H](N)C(=O)O; Bn = c1ccc(C*)cc1

Type in all cases: functional
Assay [1] has as its system Pseudomonas aeruginosa. The experiment in a line: Antimicrobial activity against polymyxin resistant Pseudomonas aeruginosa FADDI-PA060 assessed as microbial growth inhibition measured at 18 to 20 hrs by broth microdilution assay. To be noted: time 18-20 hrs. In general terms: Broth dilution looks for growth in wells or tubes with falling amounts of substance.
For assay [2], the system named is Pseudomonas aeruginosa. The experiment in a line: Antimicrobial activity against polymyxin resistant Pseudomonas aeruginosa FADDI-PA070 assessed as microbial growth inhibition measured at 18 to 20 hrs by broth microdilution assay. Particulars: time 18-20 hrs.
The test system of assay [3] is Pseudomonas aeruginosa. The experiment in a line: Antimicrobial activity against polymyxin resistant Pseudomonas aeruginosa FADDI-PA071 assessed as microbial growth inhibition measured after 20 hrs by CLSI-protocol based broth microdilution assay.
In assay [4] the test system is Pseudomonas aeruginosa. The experiment in a line: Antimicrobial activity against Pseudomonas aeruginosa PW7028 assessed as microbial growth inhibition measured after 20 hrs by CLSI-protocol based broth microdilution assay.
Assay [5] concerns Pseudomonas aeruginosa. The experiment in a line: Disruption of membrane integrity in polymyxin resistant Pseudomonas aeruginosa FADDI-071 assessed as fold increase by measuring cellular fluorescence intensity at 8 mg/L incubated for 4 hrs by DiBAC and PI staining based flow cytometry analysis. In general terms: In flow cytometry, cells or beads pass a laser one at a time.
Assay [6] deals with Pseudomonas aeruginosa. The experiment in a line: Antimicrobial activity against Pseudomonas aeruginosa PAO1 assessed as microbial growth inhibition measured after 20 hrs by CLSI-protocol based broth microdilution assay.
Assay [7] relates to Pseudomonas aeruginosa. The experiment in a line: Antimicrobial activity against polymyxin resistant Pseudomonas aeruginosa FADDI-PA065 assessed as microbial growth inhibition measured after 20 hrs by CLSI-protocol based broth microdilution assay.
Assay [8] relates to Pseudomonas aeruginosa. The experiment in a line: Disruption of membrane integrity in polymyxin resistant Pseudomonas aeruginosa FADDI-PA065 assessed as fold increase by measuring cellular fluorescence intensity at 8 mg/L incubated for 4 hrs by DiBAC and PI staining based flow cytometry analysis.
Assay [9] relates to Pseudomonas aeruginosa. The experiment in a line: Antimicrobial activity against Pseudomonas aeruginosa PAO1R assessed as microbial growth inhibition measured after 20 hrs by CLSI-protocol based broth microdilution assay.

For the molecule `CCCCCCCC(=O)N[C@@H](CCN)C(=O)N[C@H](C(=O)N[C@@H](CCN)C(=O)N[C@H]1CCNC(=O)[C@H]([C@@H](C)O)NC(=O)[C@H](CCN)NC(=O)[C@H](CCN)NC(=O)[C@H](Cc2ccccc2)NC(=O)[C@@H](Cc2ccccc2)NC(=O)[C@H](CCN)NC1=O)[C@@H](C)O`, the minimum inhibitory concentration (MIC) in the assay with Pseudomonas aeruginosa [1] and in the assay on Pseudomonas aeruginosa [2] was > 32 µg/mL throughout.
Turning to `CCCCCCCC[C@H]1NC(=O)[C@H](CCN)NC(=O)[C@@H](NC(=O)[C@H](CCN)NC(=O)[C@@H](NC(=O)[C@H](CCN)NC(=O)c2ccccc2)[C@@H](C)O)CCNC(=O)[C@H]([C@@H](C)O)NC(=O)[C@H](CCN)NC(=O)[C@H](CCN)NC(=O)[C@H](CC(C)C)NC1=O`, the MIC in the assay on Pseudomonas aeruginosa [1] and in the assay with Pseudomonas aeruginosa [2] was 32 µg/mL (≈ 26.9 µM) throughout.
Turning to `CCCCCCCC(=O)N[C@@H](CCN)C(=O)N[C@H](C(=O)N[C@@H](CCN)C(=O)N[C@H]1CCNC(=O)[C@H]([C@@H](C)O)NC(=O)[C@H](CCN)NC(=O)[C@H](CCN)NC(=O)[C@H](CC(C)C)NC(=O)[C@@H](Cc2ccc(-c3ccccc3)cc2)NC(=O)[C@H](CCN)NC1=O)[C@@H](C)O` (Octanoyl-[Dab]T[Dab][Dab][Dab][dBip]L[Dab][Dab]T; lactam 4-C), the MIC in the assay with Pseudomonas aeruginosa [1] stood at 8 µg/mL (≈ 6.32 µM); in the assay with Pseudomonas aeruginosa [2], 4 µg/mL (≈ 3.16 µM).
Consider `CCCCCCCC(=O)N[C@@H](CCN)C(=O)N[C@H](C(=O)N[C@@H](CCN)C(=O)N[C@H]1CCNC(=O)[C@H]([C@@H](C)O)NC(=O)[C@H](CCN)NC(=O)[C@H](CCN)NC(=O)[C@H](CSCc2ccccc2)NC(=O)[C@@H](Cc2ccccc2)NC(=O)[C@H](CCN)NC1=O)[C@@H](C)O` (Octanoyl-[Dab]T[Dab][Dab][Dab][dF]C(Bn)[Dab][Dab]T; lactam 4-C), for which the MIC in the assay on Pseudomonas aeruginosa [1] was 32 µg/mL (≈ 25.2 µM); in the assay on Pseudomonas aeruginosa [2], > 32 µg/mL.
Taken in the same sequence, the figures for `CCCCCCCC(=O)N[C@@H](CCN)C(=O)N[C@H](C(=O)N[C@@H](CCN)C(=O)N[C@H]1CCNC(=O)[C@H]([C@@H](C)O)NC(=O)[C@H](CCN)NC(=O)[C@H](CCN)NC(=O)[C@H](Cc2ccc(-c3ccccc3)cc2)NC(=O)[C@@H](Cc2ccccc2)NC(=O)[C@H](CCN)NC1=O)[C@@H](C)O` (Octanoyl-[Dab]T[Dab][Dab][Dab][dF][Bip][Dab][Dab]T; lactam 4-C) were 8 µg/mL (≈ 6.16 µM) and 4 µg/mL (≈ 3.08 µM).
Consider `CCCCCCCC[C@@H]1NC(=O)[C@@H](Cc2ccccc2)NC(=O)[C@H](CCN)NC(=O)[C@@H](NC(=O)[C@H](CCN)NC(=O)[C@@H](NC(=O)[C@H](CCN)NC(=O)CCCCCCC)[C@@H](C)O)CCNC(=O)[C@H]([C@@H](C)O)NC(=O)[C@H](CCN)NC(=O)[C@H](CCN)NC1=O` (Octanoyl-[Dab]T[Dab][Dab][Dab][dF][Gly(octyl)][Dab][Dab]T; lactam 4-C), for which the minimal inhibitory concentration (MIC) in the assay with Pseudomonas aeruginosa [1] came out at 2 µg/mL (≈ 1.61 µM); in the assay with Pseudomonas aeruginosa [3], 4 µg/mL (≈ 3.21 µM); in the assay on Pseudomonas aeruginosa [4], 2 µg/mL (≈ 1.61 µM); in the assay on Pseudomonas aeruginosa [2], 4 µg/mL (≈ 3.21 µM); in the assay on Pseudomonas aeruginosa [6], 4 µg/mL (≈ 3.21 µM); with Pseudomonas aeruginosa [7] it was 1 µg/mL (≈ 0.803 µM). The minimal inhibitory concentration (MIC) in the assay with Pseudomonas aeruginosa [9] was found to be 8 µg/mL (≈ 6.42 µM). In addition, the “fold change (FC)” value with Pseudomonas aeruginosa [5] and in the assay on Pseudomonas aeruginosa [8] was 19.6 each time.
As to `CCCCCCCC[C@H]1NC(=O)[C@H](CCN)NC(=O)[C@@H](NC(=O)[C@H](CCN)NC(=O)[C@@H](NC(=O)[C@H](CCN)NC(=O)CCCCCCC)[C@@H](C)O)CCNC(=O)[C@H]([C@@H](C)O)NC(=O)[C@H](CCN)NC(=O)[C@H](CCN)NC(=O)[C@H](CC(C)C)NC1=O` (Octanoyl-[Dab]T[Dab][Dab][Dab][dGly(nOct)]L[Dab][Dab]T; lactam 4-C), the MIC in the assay on Pseudomonas aeruginosa [1] is 2 µg/mL (≈ 1.65 µM); in the assay on Pseudomonas aeruginosa [3] it was 4 µg/mL (≈ 3.3 µM); in the assay with Pseudomonas aeruginosa [4] it was 4 µg/mL (≈ 3.3 µM); with Pseudomonas aeruginosa [2], 2 µg/mL (≈ 1.65 µM); in the assay with Pseudomonas aeruginosa [6], 4 µg/mL (≈ 3.3 µM); in the assay with Pseudomonas aeruginosa [7], 2 µg/mL (≈ 1.65 µM). For the same molecule, the minimum inhibitory concentration (MIC) in the assay with Pseudomonas aeruginosa [9] is 8 µg/mL (≈ 6.6 µM). Besides, the “fold change (FC)” value with Pseudomonas aeruginosa [5] and with Pseudomonas aeruginosa [8] was 18.8 each time.
For `C[C@@H](O)[C@@H]1NC(=O)[C@H](CCN)NC(=O)[C@H](CCN)NC(=O)[C@H](Cc2ccc(-c3ccccc3)cc2)NC(=O)[C@@H](Cc2ccccc2)NC(=O)[C@H](CCN)NC(=O)[C@@H](NC(=O)[C@H](CCN)NC(=O)[C@@H](NC(=O)[C@H](CCN)NC(=O)c2ccc(-c3ccccc3)cc2)[C@@H](C)O)CCNC1=O` ({Benzoyl(4-Ph)}-[Dab]T[Dab][Dab][Dab][dF][Bip][Dab][Dab]T; lactam 4-C), the values for the MIC in the assay with Pseudomonas aeruginosa [1] and in the assay with Pseudomonas aeruginosa [2] were 8 µg/mL (≈ 5.91 µM) and 16 µg/mL (≈ 11.8 µM), respectively.
For COLISTIN, the minimum inhibitory concentration (MIC) in the assay on Pseudomonas aeruginosa [1] was > 128 µg/mL; in the assay on Pseudomonas aeruginosa [3] it was > 128 µg/mL; with Pseudomonas aeruginosa [4], 1 µg/mL; in the assay with Pseudomonas aeruginosa [2], > 128 µg/mL; in the assay with Pseudomonas aeruginosa [6] it was 2 µg/mL; in the assay with Pseudomonas aeruginosa [7] it was > 128 µg/mL. In addition, the MIC with Pseudomonas aeruginosa [9] was > 32 µg/mL. In addition, the fold change (FC) in the assay with Pseudomonas aeruginosa [5] and with Pseudomonas aeruginosa [8] was 2.33 throughout.

What is called MIC is the lowest concentration that inhibits growth of the organism.
